Laboratory results as given in patent US20060004029A1, “Nitrogen-containing aromatic derivatives” (priority 2003, published 2006).

Key:
[1] = test system: Human Umbilical Vein Endothelial Cells (HUVECs); assay: Inhibition against sandwich tube formation by vascular endothelial cells, VEGF-stimulated; type: cell-based; details: HUVEC, 25 ng/ml VEGF and 10 ng/ml EGF, 4th day after addition
Protocol: (§1) Human Umbilical Vein Endothelial Cells (HUVECs) were isolated according to a reported method (Shinseikagaku Jikken Koza [New Biochemistry Experiment Lectures], “Saibo Baiyo Gijutsu” [Cell Culturing Techniques], p. 197-202), • and were cultured in a 5% CO2 incubator (37° C.) using EGM-2 medium (purchased from Clonetics Corp.) until the cells reached confluency.
(§2) An ice-cooled mixture of collagen: 5×RPMI 1640: reconstitution buffer (all purchased from Nitta Gelatin, Inc.) at 7:2:1 was dispensed at 0.4 ml into each well of a 24-well plate. After the solution was gelled by being stationed for 40 minutes in a 5% CO2 incubator (37° C.), HUVEC cell suspension was added at 0.4 ml to each well (using 1 to 1.2×10^5 cells, though the numbers of cells differ slightly according to the HUVEC lot), the HUVEC cell suspension being in human endothelial serum free medium (SFM, purchased from GIBCO BRL) containing added angiogenesis factors [20 ng/ml FGF2 (purchased from GIBCO BRL) and 10 ng/ml EGF (purchased from GIBCO BRL), or 25 ng/ml VEGF (purchased from Wako Pure Chemical Industries Co., Ltd.) and 10 ng/ml EGF, or 30 ng/ml HGF (purchased from R&D Co.) and 10 ng/ml EGF], and cultured overnight in a 5% CO2 incubator (37° C.). On the following day, the medium on the upper layer was aspirated off, and then 0.4 ml of an ice-cooled mixture of collagen: 5×RPMI 1640: reconstitution buffer (all purchased from Nitta Gelatin, Inc.) at 7:2:1 was superposed into each well prior to stationing for 4 hours in a 5% CO2 incubator (37° C.) for gelling. After adding 1.5 ml of an SFM solution containing each of the aforementioned angiogenesis factors and a diluted test substance onto the upper layer, culturing was performed in a 5% CO2 incubator (37° C.). Upon aspirating off the culture supernatant in each well on the 4th day after addition of the test substance, 0.4 ml of a 3.3 mg/ml MTT solution dissolved in PBS (purchased from Sigma Corp.) was added to each well and culturing was performed for approximately 2 hours in a 5% CO2 incubator (37° C.). The tubes formed in the collagen gel of each well were stained by MTT, the tube images were loaded into a computer (Macintosh), and the total length of the tubes was determined by image analysis software “MacScope” (purchased from Mitani Corp.). The ratio of the total length of the tubes formed in the well containing the test substance with respect to the total length of the tubes formed in the well containing no test substance was expressed as a percentage, and the concentration of each test substance required for 50% inhibition of tube formation (IC50) was determined from the ratio value.

[2] = test system: Human Umbilical Vein Endothelial Cells (HUVECs); assay: Inhibition against sandwich tube formation by vascular endothelial cells, FGF2-stimulated; type: cell-based; details: HUVEC, 20 ng/ml FGF2 and 10 ng/ml EGF, 4th day after addition
Protocol: as §1, §2

Q: Which results are given for `CCNC(=O)n1ccc2cc(Oc3ccnc(NC(=O)N4CCC(C)(O)CC4)c3)ccc21` [Example 78, 5-(2-(((4-Hydroxy-4-methylpiperidin-1-yl)carbonyl)amino)pyridin-4-yloxy)-1H-indole-1-carboxylic acid ethylamide]?
A: IC50 [1]: 3 nM; IC50 [2]: 450 nM
